A short description of data set [1]: Comparative oral versus nasal pharmacokinetics of midazolam in dogs (plasma, GC assay). It counts as in vivo, beagle dogs. The conditions noted are these: for half-life / Tmax / Cmax: dog, plasma. The method, then: Air bubbles generated during mixing were removed by centrifugation.
The dose given to each dog was 7.85, 7.89, 7.22, 5.61 mg free base.
GC Assay--for extraction, 0.5 ml of plasma, 100 μl of internal standard (100 ng/ml flurazepam in methanol) and 0.5 ml of 2N sodium hydroxide were vortexed for 5 seconds. Five ml of hexane was then added and the mixture was vortexed for one min. and centrifuges for 4 minutes. […] Fifty μl of hexane/isoamyl alcohol (80:20) was used for reconstitution.
The temperatures for column, injector port and detector were 250°, 310° and 310° C., respectively. The flow rate for argon/methane (95:5) gas was 33 ml/min.

Data set [2] can be described thus: Comparative oral versus nasal pharmacokinetics of triazolam in beagle dogs (plasma, GC assay). Particulars: for Cmax / half-life / Tmax: dog, plasma. How it is done:
In two comparative studies separated in time by over one week; four healthy male, 2-3 year old beagle dogs received oral and nasal doses of triazolam. They were fasted overnight before each study and food was withheld until the end of the experiment. They were restrained in a dog sling during the studies while blood (3 ml) was withdrawn from each dog through a cannula inserted into the cephalic vein.
Oral Administration Studies: Two 0.5 mg triazolam tablets were given to each dog with 50 ml of water. Blood samples were taken from the cephalic vein at 0 min before administration and 15, 30, 45, 60, 120, 180, 240, 300, 360 and 420 min after administration. The plasma samples were stored frozen until gas chromotographic assay for triazolam.
Nasal Administration Studies: Thirty milligrams of triazolam powder was dissolved in 5 ml of PEG 400 warmed at 55°-60° C. After the solution was cooled to room temperature, an equal volume of 1% methocel J5MS (Dow Chemical Company, Midland, Mich.) solution was mixed with the triazolam solution. Air bubbles generated during mixing were removed by centrifugation. The final concentration of triazolam in the solvent mixture was assayed by an HPLC method. An Altex C18, 4.6×150 mm column was used. The mobile phase contained 60% of 0.05 M KH2 PO4 (pH=6.0, T. J. Baker) and 40% acetonitrile (Fisher Scientific). Flow rate of mobile phase was 1 ml/min. The wavelength used was 221 nm.
Using a metered dose inhaler, triazolam solution was sprayed into both nostrils of the dogs. The dose administered was determined by weighting the bottle containing the triazolam solution before and after spraying. […] Blood sampling times were the same as in the oral study. The plasma samples were frozen until GC assay for triazolam.
GC Assay: To extract triazolam, 0.5 ml of plasma, 50 μl of internal standard (55 ng/ml clonazepam in methanol) and 3 ml of hexane/methylene chloride (4:3) were vortexed together for 15 seconds and centrifuged for 4 minutes. The bottom aqueous layer was frozen by dry ice/acetone and the upper organic layer was transferred to another tube containing 1 ml of distilled water. The mixture was vortexed for 15 seconds and centrifuged for 4 minutes. Two ml of the upper organic layer was then pipetted into another tube and evaporated to dryness in an vortex-evaporator. […] of toluene was used for reconstitution.
The amount of triazolam in 3 ml of extract plasma was assayed by an HP model 5830A GC-EC. The glass column used was a 6'×1/4" 2 mm on column w/o liner 6" coil (Anspec) with 3% OV-17 […] and detector were 275°, 310° and 350° C., respectively. The flow rate for argon/methane (95:5) gas 42 ml/min.

The mark [3] stands for this setting: nasal spray, 5.61-7.89 mg free base, individual dog.
Setting [4] is: oral, 5 mg free base equivalent, individual dog.

Where “and” joins values, the source holds several entries; their conditions need not be identical. Equal entries are not always repeated.

Consider `Cc1ncc2n1-c1ccc(Cl)cc1C(c1ccccc1F)=NC2` [midazolam], for which the half-life worked out at 36.1 min in data set [1] (nasal spray, 5.61-7.89 mg free base, individual dog, read-out: T1/2 NASAL); 33.3 min in data set [1] (nasal spray, 5.61-7.89 mg free base, mean of four dogs, read-out: T1/2 NASAL (MEAN)); 33.2 min in data set [1] (po, 5 mg, oral, 5 mg free base equivalent, mean of four dogs, read-out: T1/2 PO (MEAN)). Also, the Tmax in data set [1] (nasal spray, 5.61-7.89 mg free base, individual dog, read-out: TMAX NASAL (converted)) is 15 min; in data set [1] (nasal spray, 5.61-7.89 mg free base, mean of four dogs, read-out: TMAX NASAL (MEAN) (converted)), 15 min; in data set [1] (po, 5 mg, oral, 5 mg free base equivalent, mean of four dogs, read-out: TMAX PO (MEAN) (converted)), 30 min. Besides, the peak concentration (Cmax) in data set [1] (nasal spray, 5.61-7.89 mg free base, mean of four dogs, read-out: CMAX NASAL (MEAN)) was 101 ng/mL; in data set [1] (po, 5 mg, oral, 5 mg free base equivalent, mean of four dogs, head marked *, read-out: CMAX PO (MEAN)), 24.5 ng/mL. Moreover, the “Mean half-life in both routes of administration” value in data set [1] (dogs, nasal vs oral) is given as “about the same”. Besides, the “Tmax after nasal administration earlier than after oral administration” value in data set [1] (dogs, nasal vs oral) is recorded as 2 fold. Besides, in data set [1] (dogs, nasal vs oral, dose-corrected, FIG. 2), the “Plasma levels after nasal administration compared with oral” value is recorded as “consistently higher”. Further, the “Mean increase in AUC after nasal administration” value in data set [1] (dogs, nasal vs oral, dose-normalized) turned out to be 2.5 fold. For the same molecule, the “Cmax after oral administration lower than that of nasal route” value in data set [1] (dogs, oral vs nasal) amounted to 4 times. Also, the “AUC NASAL” value in data set [1] (nasal spray, 5.61-7.89 mg free base, dose-normalized, individual dog) was 842.9 ngmin/ml-mg and 520.8 ngmin/ml-mg and 338.5 ngmin/ml-mg and 650.8 ngmin/ml-mg. Besides, in data set [1] (nasal spray, 5.61-7.89 mg free base, dose-normalized, mean of four dogs), the “AUC NASAL (MEAN)” value was 588.3 ngmin/ml-mg. In addition, the “CMAX NASAL” value in data set [1] (setting [3]) is 159.0 ng/mL and 111.2 ng/mL and 47.1 ng/mL and 87.9 ng/mL. Besides, the “T1/2 NASAL” value in data set [1] (setting [3]) was 26.8 min and 36.5 min and 33.8 min. Moreover, the “AUC PO” value in data set [1] (oral, 5 mg free base equivalent, dose-normalized, individual dog) was 235.6 ngmin/ml-mg and 242.0 ngmin/ml-mg and 157.8 ngmin/ml-mg and 333.2 ngmin/ml-mg. Moreover, the “AUC PO (MEAN)” value in data set [1] (oral, 5 mg free base equivalent, dose-normalized, mean of four dogs) is reported as 242.1 ngmin/ml-mg. For the same molecule, the “T1/2 PO” value in data set [1] (setting [4]) was 43.5 min and 50.6 min and 19.4 min and 19.3 min. For the same molecule, the “TMAX PO” value in data set [1] (setting [4]) is 15.0 min and 45.0 min and 30.0 min.

Regarding `Cc1nnc2n1-c1ccc(Cl)cc1C(c1ccccc1Cl)=NC2` [triazolam], the Cmax came out at 27.6 ng/mL in data set [2] (CMAX NASAL (MEAN), nasal spray, 0.9343-1.532 mg, mean of four dogs, ng/ml); 27.2 ng/mL in data set [2] (CMAX NASAL, nasal spray, 0.9343-1.532 mg, individual dog, ng/ml); 7 ng/mL in data set [2] (po, 1 mg, CMAX PO (MEAN), two 0.5 mg tablets, mean of four dogs, ng/ml); 7.6 ng/mL in data set [2] (po, 1 mg, CMAX PO, two 0.5 mg tablets, individual dog, ng/ml). Moreover, the half-life in data set [2] (T1/2 NASAL (MEAN), nasal spray, 0.9343-1.532 mg, mean of four dogs) is 57.3 min; in data set [2] (T1/2 NASAL, nasal spray, 0.9343-1.532 mg, individual dog), 62.7 min; in data set [2] (po, 1 mg, T1/2 PO (MEAN), two 0.5 mg tablets, mean of four dogs), 67.5 min. Also, the Tmax in data set [2] (TMAX NASAL (MEAN), nasal spray, 0.9343-1.532 mg, mean of four dogs, (min)) was 18.8 min; in data set [2] (TMAX NASAL, nasal spray, 0.9343-1.532 mg, individual dog, (min)) it was 15 min; in data set [2] (Time of peak mean plasma concentration, nasal, dogs, mean), roughly 18.8 min; in data set [2] (po, 1 mg, TMAX PO (MEAN), two 0.5 mg tablets, mean of four dogs, (min)), 48.8 min; in data set [2] (po, 1 mg, TMAX PO, two 0.5 mg tablets, individual dog, (min)), 45 min; in data set [2] (po, 1 mg, Time of peak mean plasma concentration, dogs, mean) it was roughly 48.8 min. Besides, the Nasal absorption result in data set [2] (dogs, nasal) was “significant nasal absorption”. Also, the “Mean AUC after nasal administration larger than that of oral route” value in data set [2] (dogs, nasal vs oral) came out at 2.4 fold. Also, the “Mean half-life in both routes of administration” value in data set [2] (dogs, nasal vs oral) is reported as “about the same”. Further, the “Plasma levels after nasal administration compared with oral” value in data set [2] (dogs, nasal vs oral, dose-corrected, FIG. 1) is “consistently higher”. For the same molecule, in data set [2] (dogs, oral vs nasal, FIG. 1, attributed to gastric emptying of the tablets), the “Variability of oral plasma concentration-time curve compared with nasal” value is “more variability”. The “TMAX NASAL” value in data set [2] (nasal spray, 0.9343-1.532 mg, individual dog, (min)) worked out at 30.0. Also, in data set [2] (nasal spray, 0.9343-1.532 mg, individual dog, ng/ml), the “CMAX NASAL” value is 31.20 and 25.20 and 26.60. Further, the “TMAX PO” value in data set [2] (oral, two 0.5 mg tablets, individual dog, (min)) is 60.0 and 30.0. Also, in data set [2] (oral, two 0.5 mg tablets, individual dog, ng/ml), the “CMAX PO” value is 6.10 and 5.50 and 8.70.

The values are drawn from USRE36744E, “Nasal administration of benzodiazepine hypnotics” (Ribogene, Inc., priority 1994, dated 2000).
